# The supplement of paper PMC10307832
# Key:
# Experiment in all cases: relative viability (nuclei count vs DMSO), 5 days (fraction); higher = more cells survive
# [1] = system: NCI-H2347
# Procedure, shortened: (§1)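 Lung cancer cell lines were pin-tool dosed in 1536-well plates on the day after seeding, with either a lone drug or a fixed anchor-drug dose plus five library-drug doses (not always all listed) in √10 steps. Nuclei were counted on 4× images after 5 days. Relative viability is the ratio of treated-well to vehicle-well nuclei counts, with each value a median of duplicate plates.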
# [2] = system: SW 1573
# Procedure, shortened: as §1
# [3] = system: NCI-H647
# Procedure, shortened: as §1
# [4] = system: NCI-H322M
# Procedure, shortened: as §1
# [5] = system: NCI-H727
# Procedure, shortened: as §1
# [6] = system: NCI-H522
# Procedure, shortened: as §1
# [7] = system: NCI-H1915
# Procedure, shortened: as §1
# [8] = system: NCI-H358
# Procedure, shortened: as §1
# [9] = system: EPLC-272H
# Procedure, shortened: as §1
# [10] = system: LXF-289
# Procedure, shortened: as §1
# [11] = system: SK-MES-1
# Procedure, shortened: as §1
# [12] = system: LU99A
# Procedure, shortened: as §1
# [13] = system: NCI-H1437
# Procedure, shortened: as §1
# [14] = system: NCI-H650
# Procedure, shortened: as §1
# [15] = system: NCI-H1666
# Procedure, shortened: as §1
# [16] = system: BEN
# Procedure, shortened: as §1
# [17] = system: NCI-H441
# Procedure, shortened: as §1
# [18] = system: NCI-H23
# Procedure, shortened: as §1
# [19] = system: NCI-H2170
# Procedure, shortened: as §1
# [20] = system: HOP-62
# Procedure, shortened: as §1
# [21] = system: NCI-H2228
# Procedure, shortened: as §1
# [22] = system: NCI-H2342
# Procedure, shortened: as §1
# [23] = system: HCC-827
# Procedure, shortened: as §1
structure (smiles),measurement,setting,value
Oc1nc(-c2ccc(C(F)(F)F)cc2)nc2c1CSCC2 [XAV939] + CC(=O)Nc1cccc(-n2c(=O)n(C3CC3)c(=O)c3c(Nc4ccc(I)cc4F)n(C)c(=O)c(C)c32)c1 [Trametinib] (partner 0.02 µM),relative viability,[1]; first compound 0.08 µM,0.302
same,relative viability,[1]; first compound 0.253 µM,0.278
same,relative viability,[1]; first compound 0.8 µM,0.308
same,relative viability,[1]; first compound 2.53 µM,0.236
same,relative viability,[2]; first compound 0.08 µM,0.63
same,relative viability,[2]; first compound 0.253 µM,0.545
same,relative viability,[2]; first compound 0.8 µM,0.608
same,relative viability,[2]; first compound 2.53 µM,0.425
same,relative viability,[3]; first compound 0.08 µM,0.446
same,relative viability,[3]; first compound 0.253 µM,0.433
same,relative viability,[3]; first compound 0.8 µM,0.386
same,relative viability,[3]; first compound 2.53 µM,0.372
same,relative viability,[4]; first compound 0.08 µM,0.601
same,relative viability,[4]; first compound 0.253 µM,0.526
same,relative viability,[4]; first compound 0.8 µM,0.555
same,relative viability,[4]; first compound 2.53 µM,0.48
same,relative viability,[5]; first compound 0.08 µM,0.361
same,relative viability,[5]; first compound 0.8 µM,0.398
same,relative viability,[5]; first compound 2.53 µM,0.403
same,relative viability,[6]; first compound 0.08 µM,0.88
same,relative viability,[6]; first compound 0.253 µM,0.713
same,relative viability,[6]; first compound 0.8 µM,0.888
same,relative viability,[6]; first compound 2.53 µM,0.725
same,relative viability,[7]; first compound 0.08 µM,0.359
same,relative viability,[7]; first compound 0.253 µM,0.296
same,relative viability,[7]; first compound 0.8 µM,0.276
same,relative viability,[7]; first compound 2.53 µM,0.294
same,relative viability,[8]; first compound 0.08 µM,0.139
same,relative viability,[8]; first compound 0.253 µM,0.134
same,relative viability,[8]; first compound 0.8 µM,0.122
same,relative viability,[8]; first compound 2.53 µM,0.108
same,relative viability,[9]; first compound 0.08 µM,0.29
same,relative viability,[9]; first compound 0.253 µM,0.251
same,relative viability,[9]; first compound 0.8 µM,0.274
same,relative viability,[9]; first compound 2.53 µM,0.23
same,relative viability,[10]; first compound 0.08 µM,0.665
same,relative viability,[10]; first compound 0.253 µM,0.632
same,relative viability,[10]; first compound 0.8 µM,0.687
same,relative viability,[10]; first compound 2.53 µM,0.729
same,relative viability,[11]; first compound 0.08 µM,0.554
same,relative viability,[11]; first compound 0.253 µM,0.5
same,relative viability,[11]; first compound 0.8 µM,0.489
same,relative viability,[11]; first compound 2.53 µM,0.459
same,relative viability,[12]; first compound 0.08 µM,0.678
same,relative viability,[12]; first compound 0.253 µM,0.521
same,relative viability,[12]; first compound 0.8 µM,0.524
same,relative viability,[12]; first compound 2.53 µM,0.542
same,relative viability,[13]; first compound 0.08 µM,0.499
same,relative viability,[13]; first compound 0.253 µM,0.407
same,relative viability,[13]; first compound 0.8 µM,0.518
same,relative viability,[13]; first compound 2.53 µM,0.29
same,relative viability,[14]; first compound 0.08 µM,1.08
same,relative viability,[14]; first compound 0.253 µM,1.05
same,relative viability,[14]; first compound 0.8 µM,1
same,relative viability,[14]; first compound 2.53 µM,0.92
same,relative viability,[15]; first compound 0.08 µM,1
same,relative viability,[15]; first compound 0.253 µM,0.834
same,relative viability,[15]; first compound 0.8 µM,0.754
same,relative viability,[15]; first compound 2.53 µM,0.871
same,relative viability,[16]; first compound 0.08 µM,1.07
same,relative viability,[16]; first compound 0.253 µM,1.01
same,relative viability,[16]; first compound 0.8 µM,1.19
same,relative viability,[16]; first compound 2.53 µM,0.88
same,relative viability,[17]; first compound 0.08 µM,0.513
same,relative viability,[17]; first compound 0.253 µM,0.366
same,relative viability,[17]; first compound 0.8 µM,0.414
same,relative viability,[17]; first compound 2.53 µM,0.484
same,relative viability,[18]; first compound 0.08 µM,0.383
same,relative viability,[18]; first compound 0.8 µM,0.403
same,relative viability,[18]; first compound 2.53 µM,0.349
same,relative viability,[19]; first compound 0.08 µM,0.882
same,relative viability,[19]; first compound 0.253 µM,0.833
same,relative viability,[19]; first compound 0.8 µM,0.822
same,relative viability,[19]; first compound 2.53 µM,0.72
same,relative viability,[20]; first compound 0.08 µM,0.392
same,relative viability,[20]; first compound 0.253 µM,0.329
same,relative viability,[20]; first compound 0.8 µM,0.411
same,relative viability,[20]; first compound 2.53 µM,0.312
same,relative viability,[21]; first compound 0.08 µM,0.429
same,relative viability,[21]; first compound 0.253 µM,0.488
same,relative viability,[21]; first compound 0.8 µM,0.541
same,relative viability,[21]; first compound 2.53 µM,0.571
same,relative viability,[22]; first compound 0.08 µM,0.834
same,relative viability,[22]; first compound 0.253 µM,0.781
same,relative viability,[22]; first compound 0.8 µM,0.717
same,relative viability,[22]; first compound 2.53 µM,0.446
same,relative viability,[23]; first compound 0.08 µM,0.592
same,relative viability,[23]; first compound 0.253 µM,0.504
same,relative viability,[23]; first compound 0.8 µM,0.642
same,relative viability,[23]; first compound 2.53 µM,0.514
